Here are results for 14 compounds from patent US4963581A, “Naphthopyran derivatives and use thereof” (Takeda Chemical Industries, Ltd., priority 1988, dated 1990).

One data set concerns estrogen synthesis. The data set is described as follows: Estrogen synthesis inhibition in rats (PMSG-stimulated). The following applies: 4 days, Mean ± SD. Format: in vivo, young SD rats. On the procedure:
Groups of five young SD rats ([…], 19 days old) were used. Test groups were administered subcutaneously with the test compounds suspended in 0.2% gum arabic-containing physiological saline in a dose of 25 mg/kg or 50 mg/kg at 24-hour intervals for consecutive 4 days. Non-test groups (control groups […]) were administered with 0.2 ml of 0.2% gum arabic-containing physiological saline. On the third day after initiation of the test, a single dose of pregnant mare serum gonadotropin (PMSG) was administered subcutaneously in a dose of 10 U/rat to the test groups and to the control group 2, following the administration of the test compounds. […] The plasma samples thus obtained were subjected to plasma estradiol-17B level determination by radioimmunoassay. The uterus and ovaries were excised from each rat and, after removal of superfluous connective tissues, weighed. The results thus obtained are shown in Table 2.4-Hydroxyandrostenedione (4-OHA) was used as a reference compound for the pharmacological effect evaluation.
*P < 0.05, **P < 0.02, ***P < 0.01, ****<0.001 against PMSG group

Data set [1] has as its target T1, Human placental aromatase (Homo sapiens, UniProt P11511).
T1 construct: the pellet thus obtained was used as a microsome fraction; from tissue; host or cells: human placenta, microsome fraction
T1 sequence (P11511 1-503): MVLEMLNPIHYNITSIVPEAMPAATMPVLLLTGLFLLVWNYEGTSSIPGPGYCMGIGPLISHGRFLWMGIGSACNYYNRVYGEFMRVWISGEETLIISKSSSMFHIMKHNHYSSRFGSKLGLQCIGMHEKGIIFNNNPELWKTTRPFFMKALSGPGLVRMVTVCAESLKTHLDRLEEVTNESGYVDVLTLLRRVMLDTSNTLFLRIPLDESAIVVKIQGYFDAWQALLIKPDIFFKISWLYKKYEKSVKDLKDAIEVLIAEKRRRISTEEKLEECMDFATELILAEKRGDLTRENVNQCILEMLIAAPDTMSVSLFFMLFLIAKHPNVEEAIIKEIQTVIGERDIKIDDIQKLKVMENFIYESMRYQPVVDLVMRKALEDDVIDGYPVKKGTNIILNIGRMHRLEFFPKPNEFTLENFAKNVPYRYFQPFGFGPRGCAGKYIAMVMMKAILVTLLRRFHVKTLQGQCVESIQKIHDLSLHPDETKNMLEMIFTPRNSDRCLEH
The data set is described as follows: In vitro human placental aromatase inhibiting activity. Format: biochemical. The following applies: substrate androstenedione 4 μM, 37° C., 1 hour. On the procedure: Preparation of human placental microsome:
The method of F. A. Thompson et al. [Journal of Biological Chemistry, 249, 5364 (1974)]was partly modified. Thus, a placenta was washed with cooled 0.15 M KCl and, after removal of adhering membranes and great blood vessels, minced to sufficiently small pieces by means of scissors. To the minced tissue was added cold 0.02 M phosphate buffer (pH 7.4) containing 0.25 M sucrose in an amount of 1 ml per 1 g of tissue, the mixture was homogenized with a Polytron homogenizer (30 seconds, three times, in ice) and then centrifuged at 800×g for 10 minutes, the supernatant was subjected to centrifugation at 20,000×g for 30 minutes, followed by further centrifugation at 148,000×g for 45 minutes, and the pellet thus obtained was used as a microsome fraction. The microsome obtained was suspended in the same phosphate buffer as mentioned above in a concentration corresponding to 10 g of wet placenta per ml. The suspension was stored at -80° C. and, just prior to use, diluted 5 to 6 times.
Aromatase activity measurement and inhibitory activity:
The method of F. A. Thompson et al. (vide supra) was partly modified as follows:
A reaction solution ([…]) containing 4 μM 4-androstene-3,17-dione, 140,000 dpm, 1,2[^3 H]-androstenedione, 550 μM NADPH, 20 μl of the above microsome and 5 μl of buffer or 5 μl of an inhibitor-containing solution was incubated at 37° C. for 1 hour. In this measurement system, aromatization of androstenedione gives [^3 H]--H2 O. Therefore, this reaction mixture was extracted with 0.5 ml of chloroform for separation, the aqueous layer obtained was treated with 0.25 ml of 5% active carbon for removal of free steriods and then subjected to low speed centrifugation. A scintillator (3 ml) was added to 0.2 ml of the supernatant, and the radioactivity was measured by means of a liquid scintillation counter. The percent inhibition (%) was determined by comparing the result thus obtained with the result for a control sample as obtained without adding any inhibitor. The activity was expressed in terms of IC50 (μg/ml), namely the inhibitor concentration required for 50% inhibition of the enzyme activity at the substrate (androstenedione) concentration of 4 μM.

Setting [2] is: Test II, 25 mg/kg/day s.c., PMSG control 240.0 ± 34.9.
The mark [3] stands for this setting: Test II, 50 mg/kg/day s.c., PMSG control 240.0 ± 34.9.
Setting [4] is: Test I, 25 mg/kg/day s.c., PMSG control 568.6 ± 69.7.
Where [5] appears, read: Test I, 50 mg/kg/day s.c., PMSG control 568.6 ± 69.7.

Each structure is given as a SMILES string.

Take `CC1Cc2cc3c(c(O)c2C(=O)O1)C(=O)C(C1=C(O)C(=O)c2cc4c(c(O)c2C1=O)C(=O)OC(C)C4)=C(O)C3=O` (stereo not drawn) [Compound 3, luteosporin]: the “Tissue weight, Ovaries” value is on record as 21.3 ± 4.4 mg with estrogen synthesis (Test II, 25 mg/kg/day s.c.) and 22.6 ± 5.4 mg with estrogen synthesis (Test II, 50 mg/kg/day s.c.). Moreover, the “Tissue weight, Uterus” value is 93.6 ± 22.4 mg with estrogen synthesis (Test II, 25 mg/kg/day s.c.) and 115.4 ± 30.4 mg with estrogen synthesis (Test II, 50 mg/kg/day s.c.). For the same compound, the figures for the “Plasma estradiol-17β level” value with estrogen synthesis (setting [2]) and in the data set on estrogen synthesis (setting [3]) were 124.1 ± 53.3 pg/mL and 71.1 ± 23.4 pg/mL, respectively. The compound also gave an IC50 in data set [1] of 134 µM.

In data set [1], `COC1=C(C2=C(OC)C(=O)c3cc4c(c(OC)c3C2=O)C(=O)OC(C)C4)C(=O)c2c(cc3c(c2OC)C(=O)OC(C)C3)C1=O` (stereo not drawn) [Compound 13] gave an IC50 of 16.9 µM.

In data set [1], `CCOC1=C(C2=C(O)C(=O)c3cc4c(c(O)c3C2=O)C(=O)OC(C)C4)C(=O)c2c(cc3c(c2O)C(=O)OC(C)C3)C1=O` (stereo not drawn) [Compound 10] had an IC50 of 51.2 µM.

In turn, `CCOC1=C(C2=C(OCC)C(=O)c3cc4c(c(O)c3C2=O)C(=O)OC(C)C4)C(=O)c2c(cc3c(c2O)C(=O)OC(C)C3)C1=O` (stereo not drawn) [Compound 9] gave an IC50 in data set [1] of 40.7 µM.

In data set [1], `COC1=CC(=O)c2c(cc3c(c2O)C(=O)OC(C)C3)C1=O` (stereo not drawn) [Compound 14] showed an IC50 of 2.78 µM.

Turning to `CC1Cc2cc3c(c(O)c2C(=O)O1)C(=O)C(C1=C(O)C(=O)c2cc4c(c(O)c2C1=O)C(=O)OC(C)C4)=C(N)C3=O` (stereo not drawn) [Compound 4, plastatin], the “Tissue weight, Ovaries” value in the data set with estrogen synthesis (Test II, 25 mg/kg/day s.c.) came to 20.8 ± 3.9 mg; in the data set with estrogen synthesis (Test II, 50 mg/kg/day s.c.), 26.8 ± 4.8 mg. Moreover, the “Tissue weight, Uterus” value was 97.4 ± 17.8 mg with estrogen synthesis (Test II, 25 mg/kg/day s.c.) and 86.6 ± 9.6 mg in the data set on estrogen synthesis (Test II, 50 mg/kg/day s.c.). For the same compound, the “Plasma estradiol-17β level” value in the data set on estrogen synthesis (setting [2]) worked out at 156.0 ± 47.8 pg/mL; with estrogen synthesis (setting [3]) it was 190.3 ± 19.9 pg/mL. The IC50 in data set [1] is 30.2 µM.

For `COC1=C(c2c(OC)cc3cc4c(c(O)c3c2O)C(=O)OC(C)C4)C(=O)c2c(cc3c(c2O)C(=O)OC(C)C3)C1=O` (stereo not drawn) [Compound 5, viomellein], in the data set on estrogen synthesis (Test II, 25 mg/kg/day s.c.), the Body weight gain is on record as 22.8 ± 1.8 g; the “Tissue weight, Ovaries” value was 25.3 ± 4.9 mg; the “Tissue weight, Uterus” value was found to be 104.6 ± 16.6 mg. The “Plasma estradiol-17β level” value in the data set with estrogen synthesis (setting [2]) was 60.5 ± 51.1 pg/mL. For the same compound, in the data set on estrogen synthesis (Test II, 50 mg/kg/day s.c.), the Body weight gain is given as 22.0 ± 1.2 g; the “Tissue weight, Ovaries” value worked out at 21.0 ± 2.5 mg; the “Tissue weight, Uterus” value was 97.7 ± 16.0 mg. Besides, the “Plasma estradiol-17β level” value in the data set on estrogen synthesis (setting [3]) worked out at 63.8 ± 24.3 pg/mL. Further, the IC50 in data set [1] is 130 µM.

As to `CC1Cc2cc3c(c(O)c2C(=O)O1)C(=O)C(C1=C(N)C(=O)c2cc4c(c(O)c2C1=O)C(=O)OC(C)C4)=C(N)C3=O` (stereo not drawn) [Compound 6], the “Tissue weight, Ovaries” value came out at 32.2 ± 7.0 mg with estrogen synthesis (Test I, 25 mg/kg/day s.c.) and 32.0 ± 2.9 mg in the data set on estrogen synthesis (Test I, 50 mg/kg/day s.c.). In addition, the “Tissue weight, Uterus” value in the data set with estrogen synthesis (Test I, 25 mg/kg/day s.c.) is given as 102.2 ± 15.5 mg; with estrogen synthesis (Test I, 50 mg/kg/day s.c.), 103.1 ± 11.6 mg. Moreover, the “Plasma estradiol-17β level” value with estrogen synthesis (setting [4]) is 353.2 ± 48.4 pg/mL; with estrogen synthesis (setting [5]) it was 326.0 ± 115.1 pg/mL. In data set [1], this compound showed an IC50 of 7.16 µM.

Regarding `COC1=C(C2=C(OC)C(=O)c3cc4c(c(O)c3C2=O)C(=O)OC(C)C4)C(=O)c2c(cc3c(c2O)C(=O)OC(C)C3)C1=O` (stereo not drawn) [Compound 1, xanthomegnin], in the data set with estrogen synthesis (Test I, 25 mg/kg/day s.c.), the Body weight gain was 22.4 ± 3.1 g; the “Tissue weight, Ovaries” value stood at 23.7 ± 3.4 mg; the “Tissue weight, Uterus” value turned out to be 88.9 ± 9.0 mg. Further, the “Plasma estradiol-17β level” value in the data set with estrogen synthesis (setting [4]) worked out at 204.7 ± 67.0 pg/mL. In the data set with estrogen synthesis (Test I, 50 mg/kg/day s.c.), the Body weight gain was 21.4 ± 2.7 g; the “Tissue weight, Ovaries” value is listed as 25.5 ± 5.5 mg; the “Tissue weight, Uterus” value worked out at 91.9 ± 14.4 mg. For the same compound, in the data set on estrogen synthesis (setting [5]), the “Plasma estradiol-17β level” value is 250.9 ± 161.1 pg/mL. Further, the IC50 in data set [1] was 8.18 µM.

Consider `COC1=C(C2=C(O)C(=O)c3cc4c(c(O)c3C2=O)C(=O)OC(C)C4)C(=O)c2c(cc3c(c2O)C(=O)OC(C)C3)C1=O` (stereo not drawn) [Compound 2, monodemethylxanthomegnin], for which the “Tissue weight, Ovaries” value in the data set with estrogen synthesis (Test III, 25 mg/kg/day s.c.) is 29.4 ± 7.5 mg; in the data set with estrogen synthesis (Test III, 50 mg/kg/day s.c.), 29.0 ± 2.5 mg. Also, the “Tissue weight, Uterus” value in the data set on estrogen synthesis (Test III, 25 mg/kg/day s.c.) was found to be 115.7 ± 14.0 mg; with estrogen synthesis (Test III, 50 mg/kg/day s.c.), 106.3 ± 14.0 mg. Further, the “Plasma estradiol-17β level” value with estrogen synthesis (Test III, 25 mg/kg/day s.c., PMSG control 327.9 ± 126.6) is 189.5 ± 123.4 pg/mL; in the data set with estrogen synthesis (Test III, 50 mg/kg/day s.c., PMSG control 327.9 ± 126.6), 195.1 ± 79.3 pg/mL. This compound also had an IC50 in data set [1] of 24.1 µM.

`CNC1=C(C2=C(NC)C(=O)c3cc4c(c(O)c3C2=O)C(=O)OC(C)C4)C(=O)c2c(cc3c(c2O)C(=O)OC(C)C3)C1=O` (stereo not drawn) [Compound 11]: the IC50 in data set [1] was 437 µM.

As for `CCOC1=C(C2=C(OC)C(=O)c3cc4c(c(O)c3C2=O)C(=O)OC(C)C4)C(=O)c2c(cc3c(c2O)C(=O)OC(C)C3)C1=O` (stereo not drawn) [Compound 8], the IC50 in data set [1] is 28.7 µM.

In the case of `COc1cc2cc3c(c(O)c2c(O)c1C1=C(N)C(=O)c2cc4c(c(O)c2C1=O)C(=O)OC(C)C4)C(=O)OC(C)C3` (stereo not drawn) [Compound 7], the “Tissue weight, Ovaries” value in the data set with estrogen synthesis (Test I, 25 mg/kg/day s.c.) stood at 31.2 ± 8.5 mg; in the data set on estrogen synthesis (Test I, 50 mg/kg/day s.c.) it was 27.7 ± 2.7 mg. Also, the “Tissue weight, Uterus” value with estrogen synthesis (Test I, 25 mg/kg/day s.c.) is 94.1 ± 5.5 mg; with estrogen synthesis (Test I, 50 mg/kg/day s.c.), 110.0 ± 14.9 mg. In addition, the results for the “Plasma estradiol-17β level” value in the data set with estrogen synthesis (setting [4]) and in the data set with estrogen synthesis (setting [5]) were 323.4 ± 161.2 pg/mL and 206.3 ± 54.8 pg/mL, respectively. This compound gave an IC50 in data set [1] of 50.4 µM.

`CNC1=C(C2=C(NC)C(=O)c3cc4c(c(O)c3C2=O)C(=O)OC(C)C4)C(=O)c2c(cc3c(c2O)C(=O)OC(C)C3)C1=O` (stereo not drawn) [Compound 12]: the IC50 in data set [1] is 10.5 µM. In other words, the double-digit micromolar range.

As usually defined, the IC50 is the concentration that inhibits the measured activity by half. A high value points to weaker potency in that assay.
